SMILES strings stand for the structures.

One series relates to plasma proteins. Briefly: Protein binding via Transil assay, monkey plasma. In kind it is in vitro ADME. The text has this:
The distribution of a test substance between Transil® (phosphatidylcholine lipid bilayers immobilized on silica beads) and plasma is a characteristic feature of any pharmaceutical compound and is dependent on its extent of binding to plasma proteins. By comparing the distribution between Transil® and buffer with the distribution between Transil® and plasma of any species of interest, the unbound fraction in the plasma of the respective animal species can be calculated in vitro. The respective plasma and buffer concentrations were determined via a radioactivity analysis. A detailed description of the method and its validation was published by Schuhmacher et al. (2).

In another series the test system is PAH-minipig. Briefly: PAH-minipig model, inhaled application on top of PAH standard-of-care. Format: in vivo. The note with it: bosentan, sildenafil, Ilomedin, riociguat.

Take `O=C(O)c1ccc(CCN(CCc2ccccc2OCc2ccc(-c3ccc(C(F)(F)F)cc3)cc2Cl)[C@H]2CCCc3nc(C(=O)O)ccc32)cc1` [Comparative example 11, (5S)-5-{[2-(4-carboxyphenyl)ethyl][2-(2-{[3-chloro-4′-(trifluoromethyl)[biphenyl]-4-yl]methoxy}phenyl)ethyl]amino}-5,6,7,8-tetrahydroquinoline-2-carboxylic Acid]: the “free fraction, lower than comparative example 1” value in the series with plasma proteins is 2 times lower. In addition, the “effect on PAP on top of PAH standard-of-care” value in the series on PAH-minipig is on record as “selectively decreased elevated PAP”.

The record behind these values is patent publication US20250281480A1, “PHARMACEUTICAL DRY POWDER INHALATION FORMULATION” (Bayer Aktiengesellschaft, priority 2021, published 2025).
